What all share (test): ≥ marks a high value that may be exact or a test limit, other limits are often not marked, values filed in µg/mL are converted to µM
The subject of test [1] is Proteus mirabilis.
Test [2] deals with Micrococcus luteus.
In test [3] the test system is Staphylococcus aureus.
Test [4] has as its system Staphylococcus epidermidis.
The subject of test [5] is Bacillus subtilis.
For test [6], the system named is Shigella dysenteriae.
In test [7] the test system is Escherichia coli.
Test [8] concerns Pseudomonas aeruginosa.
Test [9] has as its system Klebsiella pneumoniae.
In test [10] the test system is Salmonella typhimurium.
Test [11] deals with Candida albicans NCPF 1467.
For test [12], the system named is Staphylococcus aureus NCTC 10788.
Test [13] concerns Escherichia coli NCTC 10418.
In test [14] the test system is Staphylococcus aureus ATCC 25923.
Test [15] concerns Escherichia coli ATCC 25922.
In test [16] the test system is Bacillus subtilis ATCC 6633.
Test [17] has as its system Candida albicans ATCC 20032.
In test [18] the test system is Salmonella typhimurium ATCC 7731.
Test [19] has as its system Staphylococcus epidermidis ATCC 12228.
In test [20] the test system is Escherichia coli UB1005.
Test [21] concerns Bacillus subtilis CMCC 63501.
In test [22] the test system is Salmonella enterica subsp. enterica serovar Typhimurium ATCC 14028.
Test [23] has as its system Staphylococcus aureus ATCC 29213.
The test system of test [24] is Pseudomonas aeruginosa ATCC 27853.
Test [25] concerns Xanthomonas vesicatoria DSM 50861.
Test [26] concerns Pseudomonas corrugata DSM 7228.
In test [27] the test system is Pseudomonas syringae pv. tomato DC3000.
Test [28] deals with Pectobacterium carotovorum subsp. carotovorum DSM 30168.
Test [29] deals with Clavibacter michiganensis subsp. michiganensis DSM 46294.
For test [30], the system named is Pseudomonas syringae pv. syringae DSM 10604.
The test system of test [31] is Salmonella enterica subsp. enterica serovar Pullorum C79-13.
Test [32] has as its system Staphylococcus aureus ATCC 43300.

Among the data in DBAASP are MIC values, retold here.

Values after ≈ are worked out from the molar mass of the structure shown. Values joined by “and” are separate entries in the source; they are usually repeats but may differ in a detail not shown here. Equal entries are not always repeated.

What is called MIC is the smallest concentration in the dilution series that meets the test's criterion for growth inhibition. Low values mean greater potency, high ones weaker potency. Take `CC(C)C[C@H](NC(=O)[C@H](C)N)C(=O)N[C@@H](Cc1ccccc1)C(=O)N[C@@H](CCCCN)C(=O)N[C@H](C(=O)N[C@@H](C)C(=O)N[C@@H](CO)C(=O)N[C@@H](CCCCN)C(=O)N[C@H](C(=O)N[C@@H](CC(C)C)C(=O)N1CCC[C@H]1C(=O)N[C@@H](CO)C(=O)N[C@H](C(=O)O)C(C)C)C(C)C)C(C)C` [ALFKVASKVLPSV]: the MIC is at least 147 µM in test [1]; at least 147 µM in test [2]; over 147 µM in test [3]; at least 147 µM in test [4]; at least 147 µM in test [5]; at least 147 µM in test [6]. Besides, the MIC in test [7] is over 147 µM; in test [8], over 147 µM; in test [9], over 147 µM; in test [10], at least 147 µM.
In the case of `CC[C@H](C)[C@H](NC(=O)[C@H](C)NC(=O)[C@H](CCCCN)NC(=O)[C@@H]1CCCN1C(=O)[C@@H](NC(=O)[C@H](CC(C)C)NC(=O)[C@H](CCCCN)NC(=O)[C@H](Cc1ccccc1)NC(=O)[C@H](CC(C)C)NC(=O)[C@@H](N)Cc1ccccc1)[C@@H](C)CC)C(=O)N[C@@H](CCCCN)C(=O)NCC(=O)N[C@@H](CC(C)C)C(=O)N[C@H](C(=O)N[C@@H](CCCCN)C(=O)N[C@@H](C)C(=O)N[C@@H](Cc1ccccc1)C(=O)N[C@H](C=O)CCCCN)[C@@H](C)CC` [FLFKLIPKAIKGLIKAFK], the MIC stood at 4 µM (≈ 8.24 µg/mL) in test [11], 4 µM (≈ 8.24 µg/mL) in test [12] and 8 µM (≈ 16.5 µg/mL) in test [13].
In the case of `CC[C@H](C)[C@H](NC(=O)[C@H](C)NC(=O)[C@H](CCCCN)NC(=O)[C@@H](NC(=O)[C@H](CC(C)C)NC(=O)CNC(=O)[C@H](CCCCN)NC(=O)[C@@H](NC(=O)[C@@H](NC(=O)[C@H](CCCCN)NC(=O)[C@@H]1CCCN1C(=O)[C@@H](NC(=O)[C@H](CC(C)C)NC(=O)[C@H](CCCCN)NC(=O)[C@H](Cc1ccccc1)NC(=O)[C@H](CC(C)C)NC(=O)[C@@H](N)Cc1ccccc1)[C@@H](C)CC)C(C)C)[C@@H](C)CC)C(C)C)C(=O)N[C@@H](CCCN=C(N)N)C(=O)N[C@@H](CCCCN)C(N)=O` [FLFKLIPKVIKGLVKAIRK], the values for the MIC in test [11], in test [12] and in [13] were 1.81 µM (≈ 4 µg/mL), 1.81 µM (≈ 4 µg/mL) and 7.23 µM (≈ 16 µg/mL), respectively.
For the molecule `CC(C)C[C@H](NC(=O)[C@@H](NC(=O)[C@H](CCCCN)NC(=O)[C@H](CC(C)C)NC(=O)[C@H](C)NC(=O)[C@@H](NC(=O)[C@H](CCCCN)NC(=O)[C@H](Cc1ccccc1)NC(=O)[C@H](CC(C)C)NC(=O)[C@H](C)NC(=O)[C@H](CCCCN)NC(=O)[C@H](CC(C)C)NC(=O)[C@@H](N)Cc1ccccc1)C(C)C)C(C)C)C(=O)O` [FLKALFKVALKVL], the MIC in test [1] is at least 134 µM; in [2], 4.23 µM (≈ 6.3 µg/mL); in test [3] it was 2.08 µM (≈ 3.1 µg/mL); in [4], 2.08 µM (≈ 3.1 µg/mL); in [5] it was 16.8 µM (≈ 25 µg/mL); in test [6], at least 33.6 µM. Besides, the MIC was 33.6 µM (≈ 50 µg/mL) in [7], over 134 µM in test [8], 67.1 µM (≈ 100 µg/mL) in test [9] and at least 134 µM in test [10].
As for `CC[C@H](C)[C@H](N)C(=O)N[C@@H](CC(C)C)C(=O)NCC(=O)N1CCC[C@H]1C(=O)N[C@H](C(=O)N[C@H](C(=O)N[C@@H](CO)C(=O)N[C@H](C(=O)N[C@H](C(=O)NCC(=O)N[C@@H](CC(N)=O)C(=O)N[C@H](C(=O)N[C@@H](CC(C)C)C(=O)NCC(=O)NCC(=O)N[C@@H](CC(C)C)C(=O)N[C@@H](CC(C)C)C(=O)N[C@@H](CCCCN)C(=O)N[C@@H](CC(N)=O)C(=O)N[C@@H](CC(C)C)C(N)=O)C(C)C)[C@@H](C)CC)[C@@H](C)O)[C@@H](C)CC)C(C)C` [ILGPVISTIGNVLGGLLKNL], the MIC in test [14] was over 50.2 µM; in test [15] it was over 50.2 µM; in test [16] it was at least 50.2 µM; in test [17], at least 50.2 µM.
With `CC[C@H](C)[C@H](N)C(=O)N[C@@H](CO)C(=O)NCC(=O)N1CCC[C@H]1C(=O)N[C@H](C(=O)N[C@@H](CC(C)C)C(=O)NCC(=O)N[C@@H](CC(C)C)C(=O)N[C@H](C(=O)NCC(=O)N[C@@H](CC(N)=O)C(=O)N[C@@H](C)C(=O)N[C@@H](CC(C)C)C(=O)NCC(=O)NCC(=O)N[C@@H](CC(C)C)C(=O)N[C@H](C(=O)N[C@@H](CCCCN)C(=O)N[C@@H](CCCCN)C(=O)N[C@H](C(N)=O)[C@@H](C)CC)[C@@H](C)CC)C(C)C)C(C)C` [ISGPVLGLVGNALGGLIKKI], the MIC in test [14] is over 52.1 µM; in [15], over 52.1 µM; in test [16], at least 52.1 µM; in test [17], at least 52.1 µM.
For the molecule `CC[C@H](C)[C@H](NC(=O)CNC(=O)[C@H](C)NC(=O)[C@H](C)NC(=O)[C@@H](NC(=O)[C@@H](NC(=O)[C@H](CC(N)=O)NC(=O)[C@@H](NC(=O)[C@H](C)NC(=O)[C@@H](NC(=O)[C@@H]1CCCN1C(=O)[C@@H](NC(=O)[C@H](CC(C)C)NC(=O)[C@@H]1CCCN1C(=O)[C@H](Cc1c[nH]c2ccccc12)NC(=O)[C@H](Cc1ccccc1)NC(=O)[C@H](CCCN=C(N)N)NC(=O)[C@@H](N)CCCCN)C(C)C)C(C)C)[C@@H](C)CC)[C@@H](C)O)C(C)C)C(=O)N[C@@H](CC(N)=O)C(=O)N[C@@H](CC(C)C)C(=O)N[C@@H](Cc1ccc(O)cc1)C(=O)N[C@@H](CCCCN)C(=O)N[C@@H](C)C(=O)N[C@H](C(=O)N[C@@H](CCCN=C(N)N)C(=O)N[C@@H](CCCN=C(N)N)C(=O)N[C@@H](CCCCN)C(N)=O)[C@@H](C)CC` [KRFWPLVPVAINTVAAGINLYKAIRRK], the MIC in [18] is 4 µM (≈ 12.4 µg/mL); in [19], 2 µM (≈ 6.19 µg/mL); in [20], 4 µM (≈ 12.4 µg/mL); in [21], 2 µM (≈ 6.19 µg/mL); in [22] it was 4 µM (≈ 12.4 µg/mL); in test [15], 2 µM and 4 µM. The MIC in [23] was 4 µM (≈ 12.4 µg/mL); in test [24], 4 µM and > 2 µM.
With `CC[C@H](C)[C@H](NC(=O)[C@H](CC(C)C)NC(=O)[C@H](CCCN=C(N)N)NC(=O)[C@H](CCCCN)NC(=O)[C@H](CC(C)C)NC(=O)[C@H](CC(C)C)NC(=O)[C@H](CCCCN)NC(=O)[C@H](CCCCN)NC(=O)[C@H](CCCN=C(N)N)NC(=O)[C@H](CCCCN)NC(=O)[C@H](CCCCN)NC(=O)[C@@H](N)CCCN=C(N)N)C(N)=O` [RKKRKKLLKRLI], the MIC in test [25] amounted to 6.33 µM (≈ 9.99 µg/mL); in [26], 0.316 µM (≈ 0.5 µg/mL); in test [27], 6.33 µM (≈ 9.99 µg/mL); in [28] it was 6.33 µM (≈ 9.99 µg/mL); in [29], 3.16 µM (≈ 5 µg/mL); in [30], 0.158 µM (≈ 0.25 µg/mL).
As for `CC(C)C[C@H](NC(=O)[C@H](CCCCN)NC(=O)[C@H](CCCCN)NC(=O)[C@H](C)NC(=O)[C@@H](NC(=O)[C@H](CCCCN)NC(=O)[C@H](CO)NC(=O)[C@H](CC(C)C)NC(=O)[C@@H](N)Cc1c[nH]c2ccccc12)[C@@H](C)O)C(N)=O` [WLSKTAKKL], the MIC in test [31] was at least 128 µM; in [18] it was at least 128 µM; in [19] it was over 128 µM; in test [20] it was at least 128 µM; in test [21], at least 128 µM; in test [15], over 128 µM. Further, the MIC in [32], in test [23] and in test [24] was over 128 µM in each case.
